The nature of data set [1]: Selectivity index, ratio of IC50 for rat L6 cells to IC50 for erythrocytic stages of Plasmodium falciparum NF54. The class given is toxicity, cell-based. Particulars: read-out: Ratio IC50.
Another data set deals with Trypanosoma cruzi. As to the kind of experiment: Antitrypanosomal activity against trypomastigote forms of Trypanosoma cruzi Tulahuen C4. The format is functional, organism-based.
For a further data set, the system named is Micrococcus luteus. Put plainly: Antibacterial activity against Micrococcus luteus by agar diffusion assay. The format is functional, organism-based. For orientation: A growth-free zone around the sample is the usual read-out of agar diffusion tests.
In another data set the test system is Bacillus subtilis. Put plainly: Antibacterial activity against Bacillus subtilis by agar diffusion assay. The class given is functional, organism-based.
A further data set concerns Plasmodium falciparum. Put plainly: Antiplasmodial activity against erythrocytic stages of Plasmodium falciparum NF54. The class given is functional, organism-based.
The next data set has as its system Saccharomyces cerevisiae. As to the kind of experiment: […] activity against Saccharomyces cerevisiae by agar diffusion assay. The format is functional, organism-based.
In another data set the test system is L6. Put plainly: Cytotoxicity against rat L6 cells. The format is cell-based.
The next data set has as its system Escherichia coli. As to the kind of experiment: Antibacterial activity against Escherichia coli DH10B by agar diffusion assay. The class given is functional. Particulars: K-12 substr. DH10B.
The subject of data set [2] is Trypanosoma brucei rhodesiense. As to the kind of experiment: Antitrypanosomal activity against bloodstream forms of Trypanosoma brucei rhodesiense STIB900. The class given is functional, organism-based.

Calls of active or inactive are those of the source. The rule behind the calls is not given here.

The text below walks through data of ChEMBL document CHEMBL3232714, “Antiparasitic chaiyaphumines from entomopathogenic Xenorhabdus sp. PB61.4” (J Nat Prod, 2014).

By IC50 is commonly meant the concentration that gives 50% inhibition. Read a low IC50 as greater potency. With `C[C@H]1NC(=O)[C@@H](Cc2ccccc2)NC(=O)[C@@H](NC(=O)Cc2ccccc2)[C@@H](C)OC(=O)[C@H](Cc2c[nH]c3ccccc23)NC(=O)[C@@H]2CCCN2C1=O`, the selectivity ratio in [1] is over 151. For the same compound, the IC50 in the data set on Trypanosoma cruzi amounted to 56.4 µM; in the data set with Plasmodium falciparum, 0.61 µM; in the data set with L6, 92.2 µM; in data set [2] it was 5.11 µM. Besides, the result in the data set with Micrococcus luteus, with Bacillus subtilis, in the data set with Saccharomyces cerevisiae and in the data set on Escherichia coli was inactive.

On to `CCC(=O)N[C@@H]1C(=O)N[C@H](Cc2ccccc2)C(=O)N[C@H](C)C(=O)N2CCC[C@H]2C(=O)N[C@@H](Cc2c[nH]c3ccccc23)C(=O)O[C@@H]1C`, for which the IC50 was 98.9 µM with Trypanosoma cruzi, 15.4 µM with Plasmodium falciparum, over 151 µM with L6 and 77.6 µM in data set [2]. Further, the outcome in the data set on Micrococcus luteus, in the data set on Bacillus subtilis, with Saccharomyces cerevisiae and with Escherichia coli was inactive.

In the data set on Trypanosoma cruzi, `O=C(Cn1ccnc1[N+](=O)[O-])NCc1ccccc1` [BENZNIDAZOLE] had an IC50 of 1.73 µM.
